Tests used:
[1] = system: endometrium in estrogen-primed immature rabbits; test: McPhail test (agonistic, progestational activity); type: in vivo, rabbit; conditions: 0-4 scale; 5 days; MPA 0.05 mg/kg/day, Org 214007-0 0.5 mg/kg/day; n=2
Procedure: The McPhail (or anti-McPhail) test was used to evaluate potential progestational (or anti-progestational) activity of Org 214007-0 on the endometrium in estrogen-primed immature rabbits after once-daily administration. The female NZW rabbits were housed in pairs in a light- and temperature-controlled room, fed daily with 40 - 50 g standard pelleted food and with free access to tap-water. Before treatment with compounds rabbits were primed daily in the morning with a subcutaneous dose of 2 μg estradiol benzoate for 8 days. […] Transverse sections were prepared, stained with haematoxylin-eosin and evaluated microscopically. Endometrial development was scored on a 0-4 scale as follows: score 0: no development of glands; score 1: start of development of glands; score 2: clear-cut development of glands with ducts beginning to branch; score 3: about 2/3 of stroma bearing glandual tissue; score 4: more than 2/3 of stroma bearing glandular tissue. A score of 2 or higher in both rabbits was evaluated as a positive resonse.
For both the agonistic and antagonistic test immature female NZW rabbits (n=2 per treatment group) were primed with estrogen. […] One day after the last treatment the uterus was dissected and endometrial development was scored on a 0-4 scale. […]

LPS-induced TNFα release = test: LPS-induced TNFα acute inflammation mouse model; type: in vivo; conditions: RU486 50 mg/kg s.c. 30 minutes before oral compound dosing
Procedure: For both the LPS-induced TNFα as well as the anti-CD3 induced IL-2 model, female Balb/c mice of 8–12 week old were used. Mice were treated orally with 0.2 ml compound or vehicle (water/mannitol (5%) with 5% DMSO/5% chremophore for the LPS model or with 0.5% gelatine for the anti-CD3 model). One hour after oral treatment animals were challenged i.p. with 0.2 ml of either 20 μg/mouse LPS (Sigma, E. coli serotype 055:B5) or 5 µg/mouse hamster anti-CD3 monoclonal (BD Biosciences Pharmingen, art. nr. 553057, clone 145-2C11). Ninety minutes after LPS injection or 3 hours after anti-CD3 challenge, blood samples were collected and serum levels of TNFα or IL-2 were determined via specific ELISAs (BD Biosciences Pharmingen, San Diego, CA, USA). In the experiment that included treatment with RU486 to block GR, mice were dosed subcutaneously with 50 mg/kg RU486 30 minutes before the oral compound dosing. ED50 and % efficacy (maximal percentage inhibition of TNFα or IL-2 release) are determined using a 3 parameter sigmoidal curve calculation. Statistical analysis of the results was performed using an one-way ANOVA (log) test.

[2] = system: endometrium in estrogen-primed immature rabbits; test: anti-McPhail test (antagonistic, anti-progestational activity); type: in vivo, rabbit; conditions: 0-4 scale; 7 days with progesterone; RU486 4 mg/kg/day, Org 214007-0 0.5 mg/kg/day oral; n=2
Procedure: For the anti-McPhail test, the estrogen-primed rabbits were subsequently treated for 7 days with inducer progesterone (0.25 mg/kg/day s.c.) in combination with an oral treatment of either placebo, reference RU486 (4 mg/kg/day) or Org 214007-0 (0.5 mg/kg/day). The uterus preparation and evaluation of the endometrium was performed as described above.
For the antagonistic test, after oestrogen priming, rabbits were treated for 7 days with progesterone and placebo, reference RU486 or Org 214007-0. One day after the last treatment the uterus was dissected and endometrial development was scored on a 0-4 scale. […] After treatment with Org 214007-0 no reduction of the endometrial transformation was observed (score 3.31), indicative for no anti-progestagenic activity

[3] = target: His-GR-LBD (F602S mutated); test: AlphaScreen or HTRF; co-factor peptide recruitment assay (Eu/APC fluorescence); 10 nM His-GR-LBD (F602S) pre-incubated 3 h at 4°C with Org 214007-0 (0.032 nM to 10 μM), then 100 nM TIF2-3 peptide, 8 nM streptavidin-APC and 1.25 nM anti-His-Eu, 20 h at 4°C

For `CC(=O)O[C@]1(C(C)=O)CC[C@H]2[C@@H]3C[C@H](C)C4=CC(=O)CC[C@]4(C)[C@H]3CC[C@@]21C` [MPA, medroxyprogesterone acetate, reference compound], the “endometrial development score, agonistic test” value [1] was 2.5.
With `CC#C[C@]1(O)CC[C@H]2[C@@H]3CCC4=CC(=O)CCC4=C3[C@@H](c3ccc(N(C)C)cc3)C[C@@]21C` [RU486, mifepristone, reference compound] the “effect of RU486 on inhibition of TNFα by Org 214007-0 or prednisolone” value (LPS-induced TNFα release) was “fully antagonized” and the “endometrial development score, antagonistic test” value [2] was 0.5.
“peptide representing Transcriptional Intermediary Factor 2 - LXXLL motif 3 (TIF2-3)” showed a percentage maximal efficacy of peptide recruitment with Org 214007-0, relative to prednisolone (100%) [3] of 67%.

From paper PMC3495945, “Org 214007-0: A Novel Non-Steroidal Selective Glucocorticoid Receptor Modulator with Full Anti-Inflammatory Properties and Improved Therapeutic Index” (PLoS ONE, 2012)
